≈ marks a conversion by molar mass, not a printed value.
What was measured:
[1] = molecular target: T1, glucocerebrosidase (Gcase) (Homo sapiens, UniProt P04062); experiment: Glucocerebrosidase (Gcase) activation assay, 4-methylumbelliferyl-beta-D-glucopyranoside substrate, with saposin C; format: biochemical; conditions: for Percent Gcase Activation, 1 μM Test Compound / activation at 1 µM: test compound at 1.0 μM; for activation at 0.1 µM: read-out: Percent Gcase Activation, 0.1 μM Test Compound; for activation at 1 µM: read-out: Percent Gcase Activation, 1 μM Test Compound
T1 sequence (P04062 40-536): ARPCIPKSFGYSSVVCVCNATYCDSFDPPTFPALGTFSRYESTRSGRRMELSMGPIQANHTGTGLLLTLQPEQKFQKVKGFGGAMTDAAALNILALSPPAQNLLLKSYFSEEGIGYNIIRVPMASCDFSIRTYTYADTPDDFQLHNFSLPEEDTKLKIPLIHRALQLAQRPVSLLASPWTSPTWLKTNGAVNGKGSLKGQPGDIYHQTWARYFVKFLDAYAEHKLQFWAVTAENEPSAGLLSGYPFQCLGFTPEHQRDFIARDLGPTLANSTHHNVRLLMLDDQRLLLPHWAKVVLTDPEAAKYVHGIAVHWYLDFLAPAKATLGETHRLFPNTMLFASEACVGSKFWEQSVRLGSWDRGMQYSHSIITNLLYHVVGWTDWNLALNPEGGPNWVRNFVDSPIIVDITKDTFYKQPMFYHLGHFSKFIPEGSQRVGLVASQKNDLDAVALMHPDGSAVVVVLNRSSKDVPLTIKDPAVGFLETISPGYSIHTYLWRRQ
Protocol: The ability of exemplary compounds to activate glucocerebrosidase (Gcase) was measured.
A 484 μL aliquot of a 1.0 mg/mL solution of phosphatidylserine (PS) (Sigma P7769) in chloroform was evaporated under a stream of nitrogen for 1 hour. The lipid film was dissolved over 4 minutes of vigorous vortexing in 40 mL of 176 mM K2HPO4/50 mM citric acid (pH 4.7) containing 7.5 μL of triton X-100, resulting in a mixed micellar preparation with a composition of 0.32 mM triton and 0.37 mol % PS. 4-Methylumbelliferyl-beta-D-glucopyranoside (ACROS-337025000) was dissolved in the micellar solution to a final concentration of 2 mM for use as the reaction substrate.
Test compounds were diluted to the desired concentrations with dimethylsulfoxide (DMSO) from 10 mM stocks, and 0.41 μL of the DMSO compound mixture was added to 100 μL of micellar solution containing 10 nM GCase and 100 nM saposin C (Enzo ALX-201-262-C050). Pre-incubation was allowed to occur for 30 minutes at room temperature, after which the reaction was initiated by combining 25 μL of substrate solution with 25 μL of compound/GCase/saposin mixture. The reaction proceeded for 15 minutes at room temperature and was stopped by adding 150 μL of 1M glycine, pH 12.5. The endpoint of the reaction was monitored by measuring fluorescence intensity (excitation: 365 nm; emission: 440 nm) on a SpectraMax i3 instrument (Molecular Devices). Test compounds were screened at 1.0 and 0.1 μM final concentration, and subsequent 8-point dose response curves were obtained using 3-fold dilutions from a maximum final concentration of 5 μM.

[2] = Compound solubility in water; format: physicochemical

SMILES	Percent Gcase Activation, 1 μM Test Compound [1]	activation at 0.1 µM ([1]; test compound at 0.1 μM)	activation at 1 µM [1]	solubility [2]	Percent Gcase Activation, 0.1 μM Test Compound ([1]; test compound at 0.1 μM)	Compound Solubility in Water [2]
Cc1cc(C)n2cnc(C(=O)NC(C)C3CCCCC3)c2n1 (stereo not shown) [III-9]	+++ (Gcase activation greater than 60%)					
Cc1cc(Oc2ccc(F)cc2)nc2c(C(=O)N[C@@H](C)C3CC3)ncn12 [III-77]		< 10%	30 to 60%	10.6 µg/mL (≈ 29.9 µM)		
Cc1cc(N)nc2c(C(=O)NC(c3ccc(F)cc3)C(F)(F)F)ncn12 (stereo not shown) [III-17]		> 20%	> 60%	0.9 µg/mL (≈ 2.45 µM)		
Cc1cc(C)n2cnc(C(=O)NC(C)C3CCCCC3)c2n1 (stereo not shown) [III-10]	+++ (Gcase activation greater than 60%)				** (Gcase activation in the range of 10% up to 20%)	23.0 µg/mL
